Data from the NIST ThermoML archive (doi:10.1016/j.fluid.2010.08.022).

Details: 101.33 kPa; for mass density: Vibrating tube method; for speed of sound: Sing-around technique in a fixed-path interferometer; for viscosity: Visco Elite L rheometer

CCCCCCCC/C=C\CCCCCCCC(=O)O.NCCO [2-hydroxyethylammonium oleate]
Details | mass density [kg/m3] | speed of sound [m/s] | viscosity [mPa·s]
310.91 K, Liquid crystal of unknown type | 928.395 | – | –
311.16 K, Liquid crystal of unknown type | 928.237 | 1466.6 | –
311.41 K, Liquid crystal of unknown type | 928.077 | 1465.8 | –
311.66 K, Liquid crystal of unknown type | 927.918 | 1465 | –
311.91 K, Liquid crystal of unknown type | 927.76 | 1464.2 | –
312.16 K, Liquid crystal of unknown type | 927.599 | 1463.4 | –
312.41 K, Liquid crystal of unknown type | 927.441 | 1462.6 | –
312.66 K, Liquid crystal of unknown type | 927.283 | 1461.8 | –
312.91 K, Liquid crystal of unknown type | 927.122 | 1461 | –
313.16 K, Liquid crystal of unknown type | 926.962 | 1460.2 | –
313.41 K, Liquid crystal of unknown type | 926.805 | 1459.4 | –
313.66 K, Liquid crystal of unknown type | 926.647 | 1458.6 | –
313.91 K, Liquid crystal of unknown type | 926.486 | 1457.8 | –
314.16 K, Liquid crystal of unknown type | 926.328 | 1457 | –
314.41 K, Liquid crystal of unknown type | 926.167 | 1456.2 | –
314.66 K, Liquid crystal of unknown type | 926.009 | 1455.4 | –
314.91 K, Liquid crystal of unknown type | 925.851 | 1454.6 | –
315.16 K, Liquid crystal of unknown type | 925.69 | 1453.8 | –
315.41 K, Liquid crystal of unknown type | 925.531 | 1453 | –
315.66 K, Liquid crystal of unknown type | 925.372 | 1452.2 | –
315.91 K, Liquid crystal of unknown type | 925.214 | 1451.4 | –
316.16 K, Liquid crystal of unknown type | 925.054 | 1450.6 | –
316.41 K, Liquid crystal of unknown type | 924.895 | 1449.8 | –
316.66 K, Liquid crystal of unknown type | 924.735 | 1449 | –
316.91 K, Liquid crystal of unknown type | 924.575 | 1448.2 | –
317.16 K, Liquid crystal of unknown type | 924.416 | 1447.4 | –
317.41 K, Liquid crystal of unknown type | 924.257 | 1446.6 | –
317.66 K, Liquid crystal of unknown type | 924.098 | 1445.8 | –
317.91 K, Liquid crystal of unknown type | 923.938 | 1445 | –
318.16 K, Liquid crystal of unknown type | 923.779 | 1444.2 | –
318.4 K, Liquid crystal of unknown type | 923.621 | 1443.4 | –
318.66 K, Liquid crystal of unknown type | 923.461 | 1442.6 | –
318.91 K, Liquid crystal of unknown type | 923.302 | 1441.8 | –
319.16 K, Liquid crystal of unknown type | 923.142 | 1441 | –
319.41 K, Liquid crystal of unknown type | 922.982 | 1440.2 | –
319.65 K, Liquid crystal of unknown type | 922.821 | 1439.4 | –
319.91 K, Liquid crystal of unknown type | 922.663 | 1438.6 | –
320.16 K, Liquid crystal of unknown type | 922.502 | 1437.8 | –
320.41 K, Liquid crystal of unknown type | 922.343 | 1437 | –
320.66 K, Liquid crystal of unknown type | 922.184 | 1436.2 | –
320.91 K, Liquid crystal of unknown type | 922.026 | 1435.5 | –
321.16 K, Liquid crystal of unknown type | 921.864 | 1434.7 | –
321.41 K, Liquid crystal of unknown type | 921.705 | 1433.9 | –
321.66 K, Liquid crystal of unknown type | 921.546 | 1433.1 | –
321.91 K, Liquid crystal of unknown type | 921.386 | 1432.3 | –
322.15 K, Liquid crystal of unknown type | 921.225 | 1431.5 | –
322.41 K, Liquid crystal of unknown type | 921.066 | 1430.8 | –
322.66 K, Liquid crystal of unknown type | 920.906 | 1430 | –
322.91 K, Liquid crystal of unknown type | 920.746 | 1429.2 | –
323.16 K, Liquid crystal of unknown type | 920.588 | 1428.4 | –
323.41 K, Liquid crystal of unknown type | 920.427 | 1427.6 | –
323.66 K, Liquid crystal of unknown type | 920.268 | 1426.8 | –
323.91 K, Liquid crystal of unknown type | 920.108 | 1426 | –
324.16 K, Liquid crystal of unknown type | 919.948 | 1425.3 | –
324.41 K, Liquid crystal of unknown type | 919.788 | 1424.5 | –
324.66 K, Liquid crystal of unknown type | 919.629 | 1423.7 | –
324.91 K, Liquid crystal of unknown type | 919.469 | 1422.9 | –
325.16 K, Liquid crystal of unknown type | 919.309 | 1422.1 | –
325.41 K, Liquid crystal of unknown type | 919.149 | 1421.3 | –
325.66 K, Liquid crystal of unknown type | 918.989 | 1420.5 | –
325.91 K, Liquid crystal of unknown type | 918.828 | 1419.7 | –
326.16 K, Liquid crystal of unknown type | 918.669 | 1419 | –
326.41 K, Liquid crystal of unknown type | 918.508 | 1418.2 | –
326.66 K, Liquid crystal of unknown type | 918.347 | 1417.4 | –
326.91 K, Liquid crystal of unknown type | 918.187 | 1416.6 | –
327.16 K, Liquid crystal of unknown type | 918.029 | 1415.8 | –
327.41 K, Liquid crystal of unknown type | 917.867 | 1415.1 | –
327.66 K, Liquid crystal of unknown type | 917.707 | 1414.3 | –
327.91 K, Liquid crystal of unknown type | 917.547 | 1413.5 | –
328.16 K, Liquid crystal of unknown type | 917.387 | 1412.7 | –
328.41 K, Liquid crystal of unknown type | 917.226 | 1412 | –
328.66 K, Liquid crystal of unknown type | 917.066 | 1411.2 | –
328.9 K, Liquid crystal of unknown type | 916.907 | 1410.4 | –
329.16 K, Liquid crystal of unknown type | 916.746 | 1409.6 | –
329.41 K, Liquid crystal of unknown type | 916.585 | 1408.9 | –
329.66 K, Liquid crystal of unknown type | 916.424 | 1408.1 | –
329.91 K, Liquid crystal of unknown type | 916.265 | 1407.3 | –
330.16 K, Liquid crystal of unknown type | 916.103 | 1406.5 | –
330.41 K, Liquid crystal of unknown type | 915.943 | 1405.8 | –
330.66 K, Liquid crystal of unknown type | 915.784 | 1405 | –
330.91 K, Liquid crystal of unknown type | 915.622 | 1404.2 | –
331.16 K, Liquid crystal of unknown type | 915.461 | 1403.5 | –
331.4 K, Liquid crystal of unknown type | 915.3 | 1402.7 | –
331.66 K, Liquid crystal of unknown type | 915.14 | 1401.9 | –
331.91 K, Liquid crystal of unknown type | 914.98 | 1401.2 | –
332.16 K, Liquid crystal of unknown type | 914.818 | 1400.4 | –
332.41 K, Liquid crystal of unknown type | 914.658 | 1399.6 | –
332.66 K, Liquid crystal of unknown type | 914.496 | 1398.8 | –
332.91 K, Liquid crystal of unknown type | 914.336 | 1398.1 | –
333.16 K, Liquid crystal of unknown type | 914.175 | 1397.3 | –
333.41 K, Liquid crystal of unknown type | 914.015 | 1396.5 | –
333.66 K, Liquid crystal of unknown type | 913.853 | 1395.7 | –
333.91 K, Liquid crystal of unknown type | 913.692 | 1395 | –
334.16 K, Liquid crystal of unknown type | 913.531 | 1394.2 | –
334.41 K, Liquid crystal of unknown type | 913.369 | 1393.4 | –
334.66 K, Liquid crystal of unknown type | 913.208 | 1392.6 | –
334.91 K, Liquid crystal of unknown type | 913.046 | 1391.9 | –
335.16 K, Liquid crystal of unknown type | 912.885 | 1391.1 | –
335.4 K, Liquid crystal of unknown type | 912.725 | 1390.3 | –
335.66 K, Liquid crystal of unknown type | 912.564 | 1389.6 | –
335.91 K, Liquid crystal of unknown type | 912.403 | 1388.8 | –
336.16 K, Liquid crystal of unknown type | 912.241 | 1388 | –
336.41 K, Liquid crystal of unknown type | 912.079 | 1387.2 | –
336.66 K, Liquid crystal of unknown type | 911.917 | 1386.5 | –
336.91 K, Liquid crystal of unknown type | 911.757 | 1385.8 | –
337.16 K, Liquid crystal of unknown type | 911.595 | 1385 | –
337.41 K, Liquid crystal of unknown type | 911.432 | 1384.2 | –
337.66 K, Liquid crystal of unknown type | 911.272 | 1383.5 | –
337.91 K, Liquid crystal of unknown type | 911.11 | 1382.7 | –
338.15 K, Liquid crystal of unknown type | – | – | 225.9
338.16 K, Liquid crystal of unknown type | 910.95 | 1381.9 | –
338.41 K, Liquid crystal of unknown type | 910.787 | 1381.2 | –
338.66 K, Liquid crystal of unknown type | 910.626 | 1380.4 | –
338.9 K, Liquid crystal of unknown type | 910.464 | 1379.7 | –
339.16 K, Liquid crystal of unknown type | 910.301 | 1378.9 | –
339.41 K, Liquid crystal of unknown type | 910.142 | 1378.1 | –
339.66 K, Liquid crystal of unknown type | 909.978 | 1377.4 | –
339.9 K, Liquid crystal of unknown type | 909.815 | 1376.6 | –
340.16 K, Liquid crystal of unknown type | 909.655 | 1375.9 | –
340.4 K, Liquid crystal of unknown type | 909.492 | 1375.1 | –
340.66 K, Liquid crystal of unknown type | 909.33 | 1374.4 | –
340.91 K, Liquid crystal of unknown type | 909.169 | 1373.6 | –
341.16 K, Liquid crystal of unknown type | 909.006 | 1372.9 | –
341.41 K, Liquid crystal of unknown type | 908.843 | 1372.1 | –
341.66 K, Liquid crystal of unknown type | 908.682 | 1371.3 | –
341.9 K, Liquid crystal of unknown type | 908.521 | 1370.6 | –
342.16 K, Liquid crystal of unknown type | 908.356 | 1369.8 | –
342.41 K, Liquid crystal of unknown type | 908.195 | 1369.1 | –
342.65 K, Liquid crystal of unknown type | 908.033 | 1368.3 | –
342.9 K, Liquid crystal of unknown type | 907.872 | 1367.6 | –
343.15 K, Liquid crystal of unknown type | 907.717 | 1366.9 | –
348.15 K, Liquid crystal of unknown type | – | – | 129.1
353.15 K, Liquid crystal of unknown type | – | – | 97.5
358.15 K, Liquid crystal of unknown type | – | – | 79.2
368.15 K, Liquid | – | – | 50.5
